The series concerns CCRIS mutagenicity, Ames/micronucleus/aberration tests. The series is described as follows: CCRIS mutagenicity studies.
The mark [1] stands for this setting: Test System: AMES SALMONELLA TYPHIMURIUM, Strain/Indicator: TA98, Metabolic Activation: NONE, Method: STANDARD PLATE.
[2] abbreviates: Test System: AMES SALMONELLA TYPHIMURIUM, Strain/Indicator: TA98, Metabolic Activation: RAT, LIVER, S-9, AROCLOR 1254, Method: STANDARD PLATE.
Where [3] appears, read: Test System: AMES SALMONELLA TYPHIMURIUM, Strain/Indicator: TA100, Metabolic Activation: NONE, Method: STANDARD PLATE.
Setting [4] is: Test System: AMES SALMONELLA TYPHIMURIUM, Strain/Indicator: TA100, Metabolic Activation: RAT, LIVER, S-9, AROCLOR 1254, Method: STANDARD PLATE.
[5] abbreviates: Test System: AMES SALMONELLA TYPHIMURIUM, Strain/Indicator: TA1535, Metabolic Activation: NONE, Method: STANDARD PLATE.
Where [6] appears, read: Test System: AMES SALMONELLA TYPHIMURIUM, Strain/Indicator: TA1537, Metabolic Activation: NONE, Method: STANDARD PLATE.
The mark [7] stands for this setting: Test System: AMES SALMONELLA TYPHIMURIUM, Strain/Indicator: TA97, Metabolic Activation: NONE, Method: PREINCUBATION

This note sets out measurements from PubChem BioAssay AID1259407 (Chemical Carcinogenesis Research Information System (CCRIS), 2018).

Each structure is given as a SMILES string. The source made the active and inactive calls. How the calls were made is not given here.

Turning to `CSCC[C@H](NC(=O)[C@@H](N)Cc1c[nH]c2ccccc12)C(=O)N[C@@H](CC(=O)O)C(=O)N[C@@H](Cc1ccccc1)C(N)=O`, the mutagenic call was “inactive; negative” under setting [1]; “inactive; negative” under setting [2]; “inactive; negative” under setting [3]; “inactive; negative” under setting [4]; “inactive; negative” under setting [5]; “inactive; negative” (Test System: AMES SALMONELLA TYPHIMURIUM, Strain/Indicator: TA1535, Metabolic Activation: RAT, LIVER, S-9, AROCLOR 1254, Method: STANDARD PLATE). In addition, the mutagenic call runs as follows: under setting [6], “inactive; negative”; (Test System: AMES SALMONELLA TYPHIMURIUM, Strain/Indicator: TA1537, Metabolic Activation: RAT, LIVER, S-9, AROCLOR 1254, Method: STANDARD PLATE) “inactive; negative”.

For the molecule `Nc1cccc2c1Cc1ccccc1-2`, the mutagenic call (Test System: AMES SALMONELLA TYPHIMURIUM, Strain/Indicator: TA98, Metabolic Activation: RAT, LIVER, S-9, AROCLOR 1254 (2 OR 4%), Method: STANDARD PLATE) is “active; positive”; the mutagenic call (Test System: AMES SALMONELLA TYPHIMURIUM, Strain/Indicator: TA100, Metabolic Activation: RAT, LIVER, S-9, AROCLOR 1254 (4%), Method: STANDARD PLATE) was “active; positive”; the mutagenic call (Test System: AMES SALMONELLA TYPHIMURIUM, Strain/Indicator: TA1535, Metabolic Activation: RAT, LIVER, S-9, AROCLOR 1254 (4%), Method: STANDARD PLATE) was “inactive; negative”; the mutagenic call (Test System: AMES SALMONELLA TYPHIMURIUM, Strain/Indicator: TA1537, Metabolic Activation: RAT, LIVER, S-9, AROCLOR 1254 (4%), Method: STANDARD PLATE) is “active; positive”.

On to `CCN(CC[N+](C)(C)C)c1ccc(N=Nc2ccc([N+](=O)[O-])cc2Cl)cc1`, for which the mutagenic call reads like this: (Test System: AMES SALMONELLA TYPHIMURIUM, Strain/Indicator: TA98, Metabolic Activation: HAMSTER, LIVER, S-9, AROCLOR 1254, Method: STANDARD PLATE) “active; positive”; (Test System: AMES SALMONELLA TYPHIMURIUM, Strain/Indicator: TA98, Metabolic Activation: HAMSTER, LIVER, S-9, Method: PREINCUBATION (PRIVAL METHOD)) “active; positive”; under setting [1], “active; positive”; under setting [2], “active; positive”; (Test System: AMES SALMONELLA TYPHIMURIUM, Strain/Indicator: TA100, Metabolic Activation: HAMSTER, LIVER, S-9, AROCLOR 1254, Method: STANDARD PLATE) “active; positive”; under setting [3], “active; positive”. The mutagenic call is, setting by setting: under setting [4], “active; positive”; under setting [6], “active; positive”; (Test System: AMES SALMONELLA TYPHIMURIUM, Strain/Indicator: TA1538, Metabolic Activation: HAMSTER, LIVER, S-9, AROCLOR 1254, Method: STANDARD PLATE) “active; positive”; (Test System: AMES SALMONELLA TYPHIMURIUM, Strain/Indicator: TA1538, Metabolic Activation: NONE, Method: STANDARD PLATE) “active; positive”; (Test System: AMES SALMONELLA TYPHIMURIUM, Strain/Indicator: TA1538, Metabolic Activation: RAT, LIVER, S-9, AROCLOR 1254, Method: STANDARD PLATE) “active; positive”; (Test System: Ames Salmonella typhimurium, Strain/Indicator: TA98, Metabolic Activation: None, Method: Preincubation) “active; positive”. Further, the mutagenic call (Test System: Ames Salmonella typhimurium, Strain/Indicator: TA100, Metabolic Activation: None, Method: Preincubation) was “inactive; negative”; the mutagenic call (Test System: Ames Salmonella typhimurium, Strain/Indicator: TA102, Metabolic Activation: None, Method: Preincubation) is “inactive; negative”; the mutagenic call (Test System: Ames Salmonella typhimurium, Strain/Indicator: TA1535, Metabolic Activation: None, Method: Preincubation) was “inactive; negative”; the mutagenic call (Test System: MOUSE LYMPHOMA, Strain/Indicator: L5178Y (TK+/TK-), Metabolic Activation: NONE, Method: SUSPENSION/PLATE) is “inactive; negative. reevaluation of results: negative”; the mutagenic call (Test System: MOUSE LYMPHOMA, Strain/Indicator: L5178Y (TK+/TK-), Metabolic Activation: RAT, LIVER, S-9, AROCLOR 1254, Method: SUSPENSION/PLATE) is “active; positive. reevaluation of results: positive”.

`ClCc1cccc(CCl)c1`: the mutagenic call under setting [1] was “inactive; negative”.

For `[O-][Cl+]O`, the mutagenic call is, setting by setting: (End Point: IN VIVO MICRONUCLEUS, Test System: BONE MARROW POLYCHROMATIC ERYTHROCYTES, Species: MOUSE, Strain/Sex: DDY/MALE, Route: ORAL) “inactive; negative; significant increase at 150 mg/kg”; under setting [7], “inactive; negative”; (Test System: AMES SALMONELLA TYPHIMURIUM, Strain/Indicator: TA97, Metabolic Activation: RAT, LIVER, S-9, AROCLOR 1254, Method: PREINCUBATION) “inactive; negative”; (Test System: AMES SALMONELLA TYPHIMURIUM, Strain/Indicator: TA102, Metabolic Activation: NONE, Method: PREINCUBATION) “inactive; negative”; (Test System: AMES SALMONELLA TYPHIMURIUM, Strain/Indicator: TA102, Metabolic Activation: RAT, LIVER, S-9, AROCLOR 1254, Method: PREINCUBATION) “inactive; negative”.

Turning to `CNc1ccc(N=Nc2ccc(N(C)C(C)=O)cc2)cc1`, the mutagenic call runs as follows: (Test System: AMES SALMONELLA TYPHIMURIUM, Strain/Indicator: TA98, Metabolic Activation: RAT, LIVER, S-9, POLYCHLORINATED BIPHENYLS, Method: PREINCUBATION) “active; positive”; (Test System: AMES SALMONELLA TYPHIMURIUM, Strain/Indicator: TA100, Metabolic Activation: RAT, LIVER, S-9, POLYCHLORINATED BIPHENYLS, Method: PREINCUBATION) “active; positive”.

As to `CC(C)CN(N=O)/C(N)=N/[N+](=O)[O-]`, the mutagenic call is, setting by setting: (Test System: AMES SALMONELLA TYPHIMURIUM, Strain/Indicator: TA100, Metabolic Activation: RAT, LIVER, S-9, KC500 OR PHENOBARBITAL, Method: LIQUID SUSPENSION) “active; positive”; under setting [5], “active; positive”; (Test System: AMES SALMONELLA TYPHIMURIUM, Strain/Indicator: TA1535, Metabolic Activation: RAT, LIVER, S-9, KC500 OR PHENOBARBITAL, Method: LIQUID SUSPENSION) “active; positive”.

Take `CN(CCCC(O)c1cccnc1)N=O` (stereo not given): the mutagenic call is, setting by setting: (Test System: AMES SALMONELLA TYPHIMURIUM, Strain/Indicator: TA1535, Metabolic Activation: HAMSTER LIVER S-9, AROCLOR 1254 (5% OR 10%), Method: MICROSUPENSION) “active; positive”; (Test System: AMES SALMONELLA TYPHIMURIUM, Strain/Indicator: TA1535, Metabolic Activation: RAT LIVER S-9, AROCLOR 1254 (5% OR 10%), Method: MICROSUSPENSION) “active; positive”.

As to `N[C@@H](CCC(=O)Nc1ccc([N+](=O)[O-])cc1)C(=O)O`, the mutagenic call is “inactive; negative” under setting [3]; “inactive; negative” (Test System: AMES SALMONELLA TYPHIMURIUM, Strain/Indicator: TA100, Metabolic Activation: RAT KIDNEY, MICROSOMES, Method: STANDARD PLATE); “inactive; negative” (Test System: AMES SALMONELLA TYPHIMURIUM, Strain/Indicator: TA100, Metabolic Activation: RAT LIVER, MICROSOMES, Method: STANDARD PLATE).

Regarding `Oc1ccc2ccc3c4ccc5ccccc5c4c4c(c3c2c1O)O4`, the mutagenic call is “active; positive” under setting [7]; “active; positive” (Test System: AMES SALMONELLA TYPHIMURIUM, Strain/Indicator: TA98, Metabolic Activation: NONE, Method: PREINCUBATION); “active; positive” (Test System: AMES SALMONELLA TYPHIMURIUM, Strain/Indicator: TA100, Metabolic Activation: NONE, Method: PREINCUBATION); “active; positive” (Test System: AMES SALMONELLA TYPHIMURIUM, Strain/Indicator: TA104, Metabolic Activation: NONE, Method: PREINCUBATION); “active; positive” (Test System: CHINESE HAMSTER V-79, Strain/Indicator: V-79/6-THIOGUANINE, Metabolic Activation: NONE).
